From patent US20180153995A1, “USE OF ANTIMICROBIAL POLYMERS FOR RE-SENSITIZATION OF MICROORGANISMS UPON EMERGENCE OF RESISTANCE TO ANTI-MICROBIAL AGENTS” (Technion Research & Development Foundation Limited, priority 2008, published 2018)
Several values for one entry are separate records, joined by “and”; a condition that tells them apart may be missing. Identical values can stand only once. Like-named read-outs stand apart in the source and are kept apart here.

Key:
[1] = test system: E. coli AG100; experiment: Antibiotic MIC with or without sub-MIC polymer (Tables 20, 21); assay type: cell-based, Escherichia coli
[2] = test system: E. coli AG100/ks; experiment: as above; assay type: cell-based, Escherichia coli
[3] = test system: E. coli 16327; experiment: microbe, parasite or virus in culture
[4] = test system: S. aureus ATCC 29213; experiment: microbe, parasite or virus in culture; settings: Staphylococcus aureus, ATCC29213, read-out: Oxacillin's MIC
Procedure: In parallel, MIC evolution was compared concomitantly for each new sub-culture, using bacteria harvested from control wells (wells cultured without antimicrobial agent from the previous sub-culture). The relative MIC was calculated for each experiment from the ratio of MIC obtained for subculture “n” to that obtained for first-time exposure.
The relative MIC was determined as the normalized ratio of the MIC obtained for a given subculture to the MIC of the control.
MICs were determined by microdilution susceptibility testing in 96-well plates using inocula of 10^5 bacteria per ml. Cell populations were evaluated by optical density measurements at 600 nm and were calibrated against a set of standards.
In parallel, MIC evolution was compared concomitantly for each new generation, using bacteria harvested from control wells (wells cultured without antimicrobial agent from the previous generation). The relative MIC was calculated for each experiment from the ratio of MIC obtained for subculture “n” to that obtained for first-time exposure. […] MICs were determined by microdilution susceptibility testing in 96-well plates. Cell populations were evaluated by optical density measurements at 600 nm and were calibrated against a set of standards.

[5] = test system: P. aeruginosa 8732; experiment: Antibiotic MIC by microdilution with or without sub-MIC polymer; assay type: cell-based, Pseudomonas aeruginosa
Procedure: MICs were determined by microdilution susceptibility testing in 96-well plates (by Nunc) using inocula of 10^5 bacteria per ml. Cell populations were evaluated by optical density measurements at 620 nm and were calibrated against a set of standards. Hundred (100) μl of a bacterial suspension were added to 100 μl of culture medium (control) or to 100 μl of culture medium containing various polymer concentrations in 2-fold serial dilutions. Inhibition of proliferation was determined by optical density measurements at 620 nm after an incubation period of 24 hours at 37° C.
Inhibition of proliferation was determined by optical density measurements at 620 nm after an incubation period of 24 hours at 37° C.

[6] = test system: S. aureus 17314; experiment: as above; assay type: cell-based, Staphylococcus aureus
[7] = test system: MRSA 15852; assay type: cell-based, Staphylococcus aureus; settings: S. aureus 15852
Method in brief: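 Checkerboard combination testing against MRSA 15852; FIC index = A/MICA + B/MICB, with A and B the MICs of each agent in combination and MICA, MICB the MICs alone. Index <0.5 read as clear re-sensitizing, 0.5–4 as marginal or null, >4 as antagonism.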

Cc1onc(-c2ccccc2)c1C(=O)N[C@@H]1C(=O)N2[C@@H]1SC(C)(C)[C@@H]2C(=O)O [Oxacillin, oxacillin]
Antibiotic MIC, None ([1]; antibiotic alone (Table 20)): 512 µg/mL | Antibiotic MIC, None ([1]; antibiotic alone (Table 21)): 512 µg/mL | Antibiotic MIC in presence of C12K(NC8K)5NH2 (SEQ ID NO: 3), +¼ MIC ([1]; polymer at ¼ of its MIC): 256 µg/mL | Antibiotic MIC in presence of C12K(NC8K)5NH2 (SEQ ID NO: 3), +½ MIC ([1]; polymer at ½ of its MIC): 32 to 64 µg/mL | Antibiotic MIC in presence of C12K(NC8K)7NH2 (SEQ ID NO: 4), +½ MIC ([1]; polymer at ½ of its MIC): 32 to 64 µg/mL | Antibiotic MIC, None ([2]; antibiotic alone (Table 20)): >512 µg/mL | Antibiotic MIC, None ([2]; antibiotic alone (Table 21)): >512 µg/mL | Antibiotic MIC in presence of C12K(NC8K)5NH2 (SEQ ID NO: 3), +¼ MIC ([2]; polymer at ¼ of its MIC): >512 µg/mL | Antibiotic MIC in presence of C12K(NC8K)7NH2 (SEQ ID NO: 4), +¼ MIC ([2]; polymer at ¼ of its MIC): >512 µg/mL | Antibiotic MIC in presence of C12K(NC8K)5NH2 (SEQ ID NO: 3), +½ MIC ([2]; polymer at ½ of its MIC): >512 µg/mL | Antibiotic MIC in presence of C12K(NC8K)7NH2 (SEQ ID NO: 4), +½ MIC ([2]; polymer at ½ of its MIC): >512 µg/mL | Antibiotic MIC in presence of C12K(NC8K)5NH2 (SEQ ID NO: 3), +⅓ MIC ([2]; polymer at ⅓ of its MIC): >512 µg/mL | Antibiotic MIC in presence of C12K(NC8K)7NH2 (SEQ ID NO: 4), +⅓ MIC ([2]; polymer at ⅓ of its MIC): >512 µg/mL | Antibiotic MIC [3]: 512 µg/mL and >512 µg/mL | Antibiotic MIC ([3]; E. coli 16327, +¼ MIC (1.6 μM) C12K(KNC12K)2NH2): >512 µg/mL | Antibiotic MIC ([3]; E. coli 16327, +½ MIC (3.12 μM) C12K(KNC12K)2NH2): 512 µg/mL | Antibiotic MIC ([3]; E. coli 16327, +⅓ MIC (2.1 μM) C12K(KNC12K)2NH2): >512 µg/mL | Antibiotic MIC ([3]; E. coli 16327, no polymer (None), Table 9): >512 µg/mL | Antibiotic MIC ([3]; E. coli 16327, no polymer (None), Table 10): >512 µg/mL | Antibiotic MIC ([3]; E. coli 16327, no polymer (None), Table 12): >512 µg/mL | MIC, ¼ + MIC OAK ([3]; E. coli U16327, with C12K(KNC10K)3NH2 (SEQ ID NO: 10) at ¼ of its MIC): >512 µg/mL | MIC, ⅓ + MIC OAK ([3]; E. coli U16327, with C12K(KNC10K)3NH2 (SEQ ID NO: 10) at ⅓ of its MIC): >512 µg/mL | Antibiotic MIC, None ([3]; E. coli U-16327, antibiotic alone (Table 15)): >512 µg/mL | Antibiotic MIC in presence of C12K(NC8K)7NH2 (SEQ ID NO: 4), +¼ MIC ([3]; E. coli U-16327, polymer at ¼ of its MIC): >512 µg/mL | Antibiotic MIC in presence of C12K(NC8K)7NH2 (SEQ ID NO: 4), +½ MIC ([3]; E. coli U-16327, polymer at ½ of its MIC): 512 µg/mL | Antibiotic MIC in presence of C12K(NC8K)7NH2 (SEQ ID NO: 4), +⅓ MIC ([3]; E. coli U-16327, polymer at ⅓ of its MIC): >512 µg/mL | MIC ([3]; Escherichia coli, 16327, read-out: MIC, Alone): > 512 µg/mL | MIC [4]: 0.28 µM and 0.125 µg/mL | Antibiotic MIC [5]: >512 µg/mL | Antibiotic MIC ([5]; P. aeruginosa 8732, +½ MIC (3.12 μM) C16(9-ene)KKNC12KNH2): >512 µg/mL | Antibiotic MIC ([5]; P. aeruginosa 8732, +⅓ MIC (2.1 μM) C16(9-ene)KKNC12KNH2): >512 µg/mL | Antibiotic MIC ([5]; P. aeruginosa 8732, no polymer (None), Table 10): >512 µg/mL | Antibiotic MIC [6]: 0.125 to 0.25 µg/mL | Antibiotic MIC ([6]; S. aureus 17314, +¼ MIC (1.6 μM) C12K(KNC12K)2NH2): 0.125 to 0.25 µg/mL | Antibiotic MIC ([6]; S. aureus 17314, +¼ MIC (1.6 μM) C12KKNC12KNH2): 0.25 µg/mL | Antibiotic MIC ([6]; S. aureus 17314, +¼ MIC (1.6 μM) C16(9-ene)KKNC12KNH2): 0.25 µg/mL | Antibiotic MIC ([6]; S. aureus 17314, +½ MIC (3.12 μM) C12K(KNC12K)2NH2): 0.125 to 0.25 µg/mL | Antibiotic MIC ([6]; S. aureus 17314, +½ MIC (3.12 μM) C12KKNC12KNH2): 0.25 µg/mL | Antibiotic MIC ([6]; S. aureus 17314, +½ MIC (3.12 μM) C16(9-ene)KKNC12KNH2): 0.06 µg/mL | Antibiotic MIC ([6]; S. aureus 17314, +⅓ MIC (2.1 μM) C12K(KNC12K)2NH2): 0.125 to 0.25 µg/mL | Antibiotic MIC ([6]; S. aureus 17314, +⅓ MIC (2.1 μM) C12KKNC12KNH2): 0.25 µg/mL | Antibiotic MIC ([6]; S. aureus 17314, +⅓ MIC (2.1 μM) C16(9-ene)KKNC12KNH2): 0.25 µg/mL | Antibiotic MIC ([6]; S. aureus 17314, no polymer (None), Table 9): 0.25 µg/mL | Antibiotic MIC ([6]; S. aureus 17314, no polymer (None), Table 10): 0.25 to 0.5 µg/mL | Antibiotic MIC ([6]; S. aureus 17314, no polymer (None), Table 11): 0.25 µg/mL | Antibiotic MIC ([6]; S. aureus 17314, no polymer (None), Table 12): 0.25 µg/mL | Antibiotic MIC ([7]; +¼ MIC (1.6 μM) C12KKNC12KNH2): 256 µg/mL | Antibiotic MIC ([7]; +½ MIC (3.12 μM) C12KKNC12KNH2): 256 µg/mL | Antibiotic MIC ([7]; +⅓ MIC (2.1 μM) C12KKNC12KNH2): 256 µg/mL | Antibiotic MIC ([7]; no polymer (None), Table 11): 256 µg/mL
